The record followed here is PubChem BioAssay AID330 (DTP/NCI, 2004).

“And” between values parts separate entries of the source, which are not always exact repeats. Identical values can stand only once. Inconclusive results and toxic doses are left out.

For the test, the system named is P388 leukemia ip, CD2F1 mice, survival T/C. Briefly: NCI In Vivo Anticancer Drug Screen. Data for tumor model P388 Leukemia (intraperitoneal) in CD2F1 (CDF1) mice. As to conditions: endpoint: median survival time, higher = longer survival. Summed up:
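Mice carrying the transplanted tumor received test compound or vehicle. Survival was recorded in each group, and the value is the treated-group measurement divided by that of the vehicle-treated control group.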

Setting [1] is: dose: 50.0 mg/kg/injection, schedule: Q01DX005 (ip), vehicle: saline with Tween-80.
[2] abbreviates: dose: 100.0 mg/kg/injection, schedule: Q01DX005 (ip), vehicle: saline with Tween-80.
The mark [3] stands for this setting: dose: 200.0 mg/kg/injection, schedule: Q01DX005 (ip), vehicle: saline with Tween-80.
Setting [4] is: dose: 100.0 mg/kg/injection, schedule: Q01DX009 (ip), vehicle: saline.
[5] abbreviates: dose: 200.0 mg/kg/injection, schedule: Q01DX009 (ip), vehicle: saline.
The mark [6] stands for this setting: dose: 50.0 mg/kg/injection, schedule: Q04DX003 (ip), vehicle: saline with Tween-80.
The mark [7] stands for this setting: dose: 100.0 mg/kg/injection, schedule: Q04DX003 (ip), vehicle: saline with Tween-80.
Where [8] appears, read: dose: 50.0 mg/kg/injection, schedule: Q01DX005 (ip), vehicle: Klucel (hydroxypropylcellulose) (HPC).
The mark [9] stands for this setting: dose: 100.0 mg/kg/injection, schedule: Q01DX005 (ip), vehicle: Klucel (hydroxypropylcellulose) (HPC).
[10] abbreviates: dose: 200.0 mg/kg/injection, schedule: Q01DX005 (ip), vehicle: Klucel (hydroxypropylcellulose) (HPC).
Setting [11] is: dose: 50.0 mg/kg/injection, schedule: Q01DX009 (ip), vehicle: Klucel (hydroxypropylcellulose) (HPC).
Setting [12] is: dose: 100.0 mg/kg/injection, schedule: Q01DX009 (ip), vehicle: Klucel (hydroxypropylcellulose) (HPC).
The mark [13] stands for this setting: dose: 200.0 mg/kg/injection, schedule: Q01DX009 (ip), vehicle: Klucel (hydroxypropylcellulose) (HPC).
Where [14] appears, read: dose: 25.0 mg/kg/injection, schedule: Q01DX005 (ip), vehicle: Klucel (hydroxypropylcellulose) (HPC).
The mark [15] stands for this setting: dose: 50.0 mg/kg/injection, schedule: Q01DX009 (ip), vehicle: saline.
[16] abbreviates: dose: 200.0 mg/kg/injection, schedule: Q04DX003 (ip), vehicle: saline with Tween-80.

For the molecule `OCC1N2CCC(CC2)C1(O)O` (stereo unspecified), the T/C (dose: 100.0 mg/kg/injection, schedule: Q04DX003 (ip), vehicle: suspension in saline) was 96 % of control; the T/C (dose: 200.0 mg/kg/injection, schedule: Q04DX003 (ip), vehicle: suspension in saline) is 100 % of control; the T/C (dose: 400.0 mg/kg/injection, schedule: Q04DX003 (ip), vehicle: suspension in saline) was 106 % of control.
For the molecule `CC(C)c1cc(N(C)C)cc(=S)[nH]1`, the T/C is, setting by setting: (dose: 50.0 mg/kg/injection, schedule: Q01DX005 (ip), vehicle: saline) 104 % of control; (dose: 100.0 mg/kg/injection, schedule: Q01DX005 (ip), vehicle: saline) 94 % of control; (dose: 200.0 mg/kg/injection, schedule: Q01DX005 (ip), vehicle: saline) 102 % of control.
As for `CCCC1SCC(=O)N1c1nncs1` (stereo unspecified), the T/C runs as follows: (dose: 30.0 mg/kg/injection, schedule: Q01DX005 (ip), vehicle: Klucel (hydroxypropylcellulose) (HPC)) 94 % of control; (dose: 60.0 mg/kg/injection, schedule: Q01DX005 (ip), vehicle: Klucel (hydroxypropylcellulose) (HPC)) 104 % of control and 111 % of control; (dose: 100.0 mg/kg/injection, schedule: Q01DX001 (ip), vehicle: Klucel (hydroxypropylcellulose) (HPC)) 96 % of control; (dose: 120.0 mg/kg/injection, schedule: Q01DX005 (ip), vehicle: Klucel (hydroxypropylcellulose) (HPC)) 120 % of control; (dose: 200.0 mg/kg/injection, schedule: Q01DX001 (ip), vehicle: Klucel (hydroxypropylcellulose) (HPC)) 103 % of control; (dose: 240.0 mg/kg/injection, schedule: Q01DX005 (ip), vehicle: Klucel (hydroxypropylcellulose) (HPC)) 166 % of control.
Consider `CCOC(=Nc1ccc(C#N)cc1)SC(c1ccccc1)(c1ccccc1)c1ccccc1`, for which the T/C was 104 % of control under setting [1], 96 % of control under setting [2] and 86 % of control under setting [3].
With `CC1=NNC(C)(C)C1`, the T/C under setting [4] was 105 % of control; the T/C under setting [5] is 105 % of control; the T/C (dose: 400.0 mg/kg/injection, schedule: Q01DX009 (ip), vehicle: saline) was 110 % of control.
For the molecule `CC(C)c1ccc(/C=C/c2ccc(N(C)C)cc2)cc1`, the T/C is, setting by setting: (dose: 50.0 mg/kg/injection, schedule: Q01DX009 (sc), vehicle: olive oil, sesame oil, peanut oil) 100 % of control; (dose: 100.0 mg/kg/injection, schedule: Q01DX009 (sc), vehicle: olive oil, sesame oil, peanut oil) 100 % of control; (dose: 200.0 mg/kg/injection, schedule: Q01DX009 (sc), vehicle: olive oil, sesame oil, peanut oil) 97 % of control.
As to `CCOC(=O)N1C(=O)c2ccccc2C1=O`, the T/C was 110 % of control (dose: 25.0 mg/kg/injection, schedule: Q01DX009 (ip), vehicle: saline with Tween-80); 115 % of control (dose: 25.0 mg/kg/injection, schedule: Q04DX003 (ip), vehicle: saline with Tween-80); 105 % of control (dose: 50.0 mg/kg/injection, schedule: Q01DX009 (ip), vehicle: saline with Tween-80); 110 % of control under setting [6]; 100 % of control (dose: 100.0 mg/kg/injection, schedule: Q01DX009 (ip), vehicle: saline with Tween-80); 120 % of control under setting [7].
Consider `CSCCC(NC(=O)C(C)NC(=O)OCc1ccccc1)C(=O)O` (stereo unspecified), for which the T/C is, setting by setting: under setting [8], 99 % of control; under setting [9], 101 % of control; under setting [10], 95 % of control.
On to `O=C(O)c1nnc(C(=O)O)nn1`, for which the T/C (dose: 6.25 mg/kg/injection, schedule: Q01DX009 (ip), vehicle: water) was 98 % of control; the T/C (dose: 12.5 mg/kg/injection, schedule: Q01DX009 (ip), vehicle: water) is 103 % of control; the T/C (dose: 25.0 mg/kg/injection, schedule: Q01DX009 (ip), vehicle: water) was 102 % of control; the T/C (dose: 50.0 mg/kg/injection, schedule: Q01DX009 (ip), vehicle: water) was 100 % of control; the T/C (dose: 100.0 mg/kg/injection, schedule: Q01DX009 (ip), vehicle: water) is 90 % of control.
`Cc1ccc2sc(=S)sc2c1`: the T/C is 89 % of control under setting [11], 99 % of control under setting [12] and 96 % of control under setting [13].
As for `O=C1N[C@H]2CS(=O)(=O)C[C@H]2N1`, the T/C runs as follows: under setting [1], 100 % of control; under setting [2], 104 % of control; under setting [3], 93 % of control.
For `COC(=O)CC(c1ccc(OC)cc1)c1cc2c(cc1OC)OCO2` (stereo unspecified), the T/C was 97 % of control (dose: 50.0 mg/kg/injection, schedule: Q01DX005 (ip), vehicle: distilled water + Tween-80); 97 % of control (dose: 100.0 mg/kg/injection, schedule: Q01DX005 (ip), vehicle: distilled water + Tween-80); 97 % of control (dose: 200.0 mg/kg/injection, schedule: Q01DX005 (ip), vehicle: distilled water + Tween-80).
For `N#CC1OC1c1ccc[n+]([O-])c1` (stereo unspecified), the T/C reads like this: (dose: 1.56 mg/kg/injection, schedule: Q01DX005 (ip), vehicle: saline) 94 % of control; (dose: 3.12 mg/kg/injection, schedule: Q01DX005 (ip), vehicle: saline) 105 % of control; (dose: 6.25 mg/kg/injection, schedule: Q01DX005 (ip), vehicle: saline) 100 % of control; (dose: 12.5 mg/kg/injection, schedule: Q01DX005 (ip), vehicle: saline) 101 % of control.
As for `NC(=O)/C(N=Nc1ccccc1I)=N\Nc1ccccc1I`, the T/C is 97 % of control under setting [8], 98 % of control under setting [9] and 97 % of control under setting [10].
On to `Nc1nc(C[P+](c2ccccc2)(c2ccccc2)c2ccccc2)c(CCCCc2ccccc2)c(=O)[nH]1`, for which the T/C is 101 % of control (dose: 12.5 mg/kg/injection, schedule: Q01DX005 (ip), vehicle: Klucel (hydroxypropylcellulose) (HPC)); 101 % of control under setting [14]; 98 % of control and 99 % of control under setting [8].
Turning to `CCCCCCCC1SCC(=O)N1c1nncs1` (stereo unspecified), the T/C was 94 % of control (dose: 60.0 mg/kg/injection, schedule: Q01DX005 (ip), vehicle: saline with Tween-80); 94 % of control (dose: 120.0 mg/kg/injection, schedule: Q01DX005 (ip), vehicle: saline with Tween-80); 91 % of control (dose: 240.0 mg/kg/injection, schedule: Q01DX005 (ip), vehicle: saline with Tween-80).
Take `O=C(O)c1cc2ccc(Br)cc2[se]1`: the T/C under setting [15] is 110 % of control, the T/C under setting [4] was 99 % of control and the T/C under setting [5] was 94 % of control.
With `C=C1CC(c2ccc(S(=O)(=O)N3CCOCC3)cc2)OC1=O` (stereo unspecified), the T/C is, setting by setting: under setting [14], 104 % of control; under setting [8], 120 % of control; under setting [9], 113 % of control.
Turning to `CN(C)C1=CC(=S)NC2CCCCC12` (stereo unspecified), the T/C under setting [8] is 99 % of control, the T/C under setting [9] was 95 % of control and the T/C under setting [10] was 102 % of control.
As for `CN(C)c1ccc2c(c1)Oc1cc(N(C)C)ccc1C21c2ccccc2C(=O)N1N`, the T/C was 100 % of control (dose: 100.0 mg/kg/injection, schedule: Q04DX002 (ip), vehicle: saline with Tween-80); 90 % of control (dose: 200.0 mg/kg/injection, schedule: Q04DX002 (ip), vehicle: saline with Tween-80); 90 % of control (dose: 400.0 mg/kg/injection, schedule: Q04DX002 (ip), vehicle: saline with Tween-80).
As to `CC(=O)N(O)c1ccc(C(N)=O)cc1`, the T/C reads like this: under setting [15], 99 % of control; under setting [4], 106 % of control; under setting [5], 106 % of control.
Take `COc1cc(C=Nc2cc(Cl)cc(Cl)c2)ccc1N(CCCl)CCCl`: the T/C under setting [7] is 159 % of control and 172 % of control; the T/C under setting [16] was 181 % of control and 222 % of control; the T/C (dose: 300.0 mg/kg/injection, schedule: Q04DX003 (ip), vehicle: saline with Tween-80) is 204 % of control.
As to `C=C(C)C(=O)NCC(=O)NCC(=O)NCC(=O)Oc1ccc([N+](=O)[O-])cc1`, the T/C runs as follows: under setting [6], 100 % of control; under setting [7], 90 % of control; under setting [16], 99 % of control.
As to `O=C1C=CC(=C2SCCS2)C(O)=C1`, the T/C is, setting by setting: under setting [11], 100 % of control; under setting [12], 93 % of control; under setting [13], 97 % of control.
